Patent US20050075284A1, “Pharmaceutical compositions comprising vip-related peptides for the treatment of sexual disorders” (priority 2001, published 2005)
“Also recorded” adds a separate entry of the source. Where no end group is shown, it is not given here.

Assays:
[1] = cited from earlier work
cGMP formation = details: versus VIP; cited from earlier work
vaginal muscle = experiment: Rabbit vaginal contraction in organ bath (force transducer); format: cell-based, New Zealand female rabbit
Protocol: The vagina of 12-week-old New Zealand female rabbit was removed, exiced to 1 cm length and immersed in 10 ml of capacity organ bath connected to an external reservoir of Krebs-Henseleit in constant temperature of 37° C. The solution was oxygenated (95%O2/[…]). The effect of VIP and SNV on vaginal contraction was measured by attaching the vaginal muscle to a force transducer.

penile erection = details: in the male; cited from earlier work
[2] = system: uterine smooth muscle activity and vaginal blood flow; details: systemic administration to females; cited from earlier work

| Substance | bioavailability [1] | potency in enhancing cGMP formation relative to VIP (cGMP formation) | effect on contraction force (inotropic effect) (vaginal muscle; 0.3 μM peptide, 0.5 μM phenylephrine, FIG. 2) | effect on rate of vaginal contraction (vaginal muscle; 0.3 μM peptide, contraction stimulated by 0.5 μM phenylephrine, FIG. 2) | effect on vaginal contraction at high concentration (vaginal muscle; 1.5 μM peptide (b76 prints 1.5 M), contraction stimulated by 0.5 μM phenylephrine, FIG. 3) | penile erection (penile erection) | uterine smooth muscle activity [2] | vaginal blood flow [2] | effect on vaginal contraction (vaginal muscle; 0.3 μM peptide, preliminary results, FIG. 1) |
| --- | --- | --- | --- | --- | --- | --- | --- | --- | --- |
| Stearoyl-norleucine^17-VIP [SNV] | increased stability and bioavailability | 1000 fold | reduced the contraction force | attenuated the rate of vaginal contraction | blocked vaginal contraction; also recorded: neutralized vaginal contraction | – | – | – | – |
| vasoactive intestinal peptide (HSDAVFTDNYTRLRKQMAVKKYLNSILN; ends and bridges not checked; UniProt P01282 125-152, looked up) [VIP] | – | – | – | – | – | induces penile erection | decrease uterine smooth muscle activity | increase vaginal blood flow | neutralized vaginal contraction |
